Assay results published in patent US20250270170A1, “2,3-DIMETHOXY-5-METHYL-1,4-BENZOQUINONE ALKYL ALCOHOL DERIVATIVE AND USE THEREOF” (BEIJING ANJIANXI BIO-MEDICAL TECHNOLOGY CO., LTD., priority 2021, published 2025).
“Also recorded” adds a separate entry of the source. Marks after values point to notes of the source that are not given here.

What was measured:
[1] = Example 7: serum UREA content; type: in vivo, nude mice; conditions: mouse, in vivo, po, 16 mg/kg
[2] = tested on: human gastric cancer NCI-N87 transplanted tumor; experiment: Example 3: tumor growth in NCI-N87 transplanted tumor model in nude mice; type: in vivo, BALB/c nude mice
Procedure: Female BALB/c nude mice (age: 6 to 7 weeks) were purchased from Beijing Vital River Laboratory Animal Technology Co., Ltd. The mice were raised in an SPF animal room at a temperature of 20 to 25° C., a relative humidity of 40% to 70%, and a cycle of 12 hours of light and 12 hours of dark. The animals had free access to water and food. After about 1 week of normal feeding, mice with good physical condition after the veterinary examination were selected for this assay. Before grouping, a marker was used to mark on the base of the animals' tail. After grouping, each animal was marked with an ear cutout.
The solution was prepared before each administration. An appropriate amount of DDP was weighed and put into a glass bottle. Then, an appropriate volume of physiological saline was added to the bottle, and vortexed (may be heated in a water bath to 50 to 60° C.) to completely dissolve the drug.
An appropriate amount of the compound was weighed and added to an appropriate volume of dimethylacetamide (DMA). The mixture was vortexed to prepare a stock solution (8 mg·mL^−1). The stock solution was prepared once a week, divided into packages and then stored in a 2 to 8° C. refrigerator. One tube was taken out before each administration, and an appropriate volume of 30% Solutol and PEG400 was added while vortexing. The mixture was vortexed and mixed well. Then, an appropriate volume of physiological saline was added, and mixed well to give an administration formulation with a concentration of 0.4 mg·mL^−1, in which the volume ratio of DMA: 30% Solutol: PEG 400: physiological saline was 5:20:20:55.
Human gastric cancer cells NCI-N87 were obtained from the Cell Bank of the Type Culture Collection Committee of Chinese Academy of Sciences (cryopreserved in liquid nitrogen in the laboratory).
NCI-N87 cells were routinely cultured in a RPMI-1640 culture medium containing 10% fetal bovine serum under culture conditions of 37° C. and 5% CO2. The cells were digested with 0.25% trypsin, and passaged according to the cell growth conditions with a passaging ratio of 1:3 to 1:5.
The NCI-N87 cells in the logarithmic growth phase were collected, counted and resuspended in a serum-free RPMI-1640 medium, and the cell concentration was adjusted to 5×10^7 cells/mL. The cells were pipetted with a pipette to disperse them evenly, and the cells were put into a 50-mL centrifuge tube, which was placed in an ice box. A 1-mL syringe was used to draw the cell suspension, which was injected subcutaneously into the axilla of the front right limb of a nude mouse. Each animal was inoculated with 100 μL (5×10^6 cells/mouse) to establish an NCI-N87 transplanted tumor model in nude mice. After the inoculation, the animal status and tumor growth were regularly observed, and the tumor diameter was measured using an electronic vernier caliper. The data were input into an Excel spreadsheet to calculate the tumor volume. When the tumor volume reached 100 to 300 mm^3, 72 animals in good health and with similar tumor volumes were selected and divided into 9 groups (n=8) using randomized block method. The day of grouping was regarded as the first day of the assay (D1). After the start of the assay, the tumor diameter was measured twice a week, the tumor volume was calculated, and the animal body weight was also weighed and recorded.
The calculation formula of tumor volume (TV) is as follows: […]
wherein l represents the long diameter of a tumor (mm); and w represents the short diameter of a tumor (mm).
On the last day of the assay (D44), the animals were anesthetized using CO2 inhalation 1 hour after administration (R01) and sacrificed, and tumor tissues were collected, weighed, and photographed.
The calculation formula of tumor growth inhibition rate TGI (%) is: […]

[3] = tested on: VEGF/VEGFR/p-VEGFR and other proteins in NCI-N87 transplanted tumor tissues; experiment: Example 4: Western blot of NCI-N87 transplanted tumor tissue proteins; type: in vivo, nude mice; conditions: Western blot grayscale vs blank solvent group, compound of formula (I) 2 mg/kg, 2 mg/kg
Procedure: Western Blot technology was used to quantitatively detect the expression of VEGF/VEGFR, Survivin and other proteins in tumor tissues. […] In this study, 50 μg of tumor tissue proteins were added to each well, and the working concentrations of the antibodies were diluted according to the instructions. Briefly: the tumor tissue was taken, lysed with an RIPA protein lysis solution containing 1% PMSF and mixed protease inhibitors, and centrifuged at 12000×g for 20 min to take the supernatant; the concentration of proteins was detected by BCA method; 10% SDS-PAGE gel electrophoresis was performed; the proteins from SDS-PAGE gel were transfered to a PVDF membrane by semi-dry […]; the membrane was blocked with a fast blocking buffer for 10 minutes, and a primary antibody at corresponding working concentration was added, and incubated at 4° C. overnight; the membrane was washed with TBST for 3 times, and incubated with a secondary antibody at room temperature for 1 h; after washing the membrane three times, an image was developed and saved, and the grayscale values were analyzed with Image lab; the anti-Vinculin antibody was used as an internal reference control antibody.
The grayscale of the Western blot bands were calculated with Image J software, and Graphpad Prism 5 was used for related statistical processing. A two-sided t-test was used for comparison between two groups. P>0.05 means no significance (NS), P<0.05 is *, […], and P<0.001 is ***.

## COC1=C(OC)C(=O)C(CCCCCCCCCCOC(=O)Cc2c(C)n(C(=O)c3ccc(Cl)cc3)c3ccc(OC)cc23)=C(C)C1=O [compound of formula (I)]
[1]
  Serum UREA content, Mean: 7.83 mmol serum^−1
[2]; D13, 2 mg/kg i.g. BID×28
  Mean tumor volume: 141 ± 9 mm^3
[2]; D13, 6 mg/kg i.g. BID×28
  Mean tumor volume: 140 ± 8 mm^3
[2]; D13, 18 mg/kg i.g. BID×28
  Mean tumor volume: 134 ± 8 mm^3
[2]; D16, 2 mg/kg i.g. BID×28
  Mean tumor volume: 180 ± 17 mm^3
  tumor growth inhibition rate: (52%)
[2]; D16, 6 mg/kg i.g. BID×28
  Mean tumor volume: 183 ± 10 mm^3
  tumor growth inhibition rate: (48%)
[2]; D16, 18 mg/kg i.g. BID×28
  Mean tumor volume: 175 ± 19 mm^3
  tumor growth inhibition rate: (50%)
[2]; D20, 2 mg/kg i.g. BID×28
  Mean tumor volume: 218 ± 17** mm^3
  tumor growth inhibition rate: (53%)
[2]; D20, 6 mg/kg i.g. BID×28
  Mean tumor volume: 220 ± 11** mm^3
  tumor growth inhibition rate: (51%)
[2]; D20, 18 mg/kg i.g. BID×28
  Mean tumor volume: 209 ± 27* mm^3
  tumor growth inhibition rate: (54%)
[2]; D23, 2 mg/kg i.g. BID×28
  Mean tumor volume: 253 ± 24** mm^3
  tumor growth inhibition rate: (53%)
[2]; D23, 6 mg/kg i.g. BID×28
  Mean tumor volume: 255 ± 16** mm^3
  tumor growth inhibition rate: (52%)
[2]; D23, 18 mg/kg i.g. BID×28
  Mean tumor volume: 245 ± 36* mm^3
  tumor growth inhibition rate: (54%)
[2]; D27, 2 mg/kg i.g. BID×28
  Mean tumor volume: 294 ± 30** mm^3
  tumor growth inhibition rate: (60%)
[2]; D27, 6 mg/kg i.g. BID×28
  Mean tumor volume: 302 ± 24** mm^3
  tumor growth inhibition rate: (58%)
[2]; D27, 18 mg/kg i.g. BID×28
  Mean tumor volume: 297 ± 48** mm^3
  tumor growth inhibition rate: (58%)
[2]; D30, 2 mg/kg i.g. BID×28
  Mean tumor volume: 332 ± 32** mm^3
  tumor growth inhibition rate: (65%)
[2]; D30, 6 mg/kg i.g. BID×28
  Mean tumor volume: 348 ± 31** mm^3
  tumor growth inhibition rate: (62%)
[2]; D30, 18 mg/kg i.g. BID×28
  Mean tumor volume: 354 ± 64** mm^3
  tumor growth inhibition rate: (60%)
[2]; D34, 2 mg/kg i.g. BID×28
  Mean tumor volume: 370 ± 41** mm^3
  tumor growth inhibition rate: (70%)
[2]; D34, 6 mg/kg i.g. BID×28
  Mean tumor volume: 412 ± 37** mm^3
  tumor growth inhibition rate: (64%)
[2]; D34, 18 mg/kg i.g. BID×28
  Mean tumor volume: 444 ± 79** mm^3
  tumor growth inhibition rate: (59%)
[2]; D37, 2 mg/kg i.g. BID×28
  Mean tumor volume: 450 ± 46** mm^3
  tumor growth inhibition rate: (68%)
[2]; D37, 6 mg/kg i.g. BID×28
  Mean tumor volume: 508 ± 38** mm^3
  tumor growth inhibition rate: (62%)
[2]; D37, 18 mg/kg i.g. BID×28
  Mean tumor volume: 492 ± 87** mm^3
  tumor growth inhibition rate: (64%)
[2]; D44, 2 mg/kg i.g. BID×28
  Mean tumor volume: 536 ± 52** mm^3
  tumor growth inhibition rate: (68%)
[2]; D44, 6 mg/kg i.g. BID×28
  Mean tumor volume: 595 ± 57** mm^3
  tumor growth inhibition rate: (63%)
[2]; D44, 18 mg/kg i.g. BID×28
  Mean tumor volume: 590 ± 113** mm^3
  tumor growth inhibition rate: (63%)
[2]; NCI-N87 transplanted tumor model, summary of Table 5
  anti-tumor effect compared with cisplatin: better anti-tumor effect
[3]
  expression of CyclinD1: down-regulated; also recorded: downregulated
  expression of PCNA: up-regulated; also recorded: upregulated
  expression of VEGFA: down-regulated; also recorded: downregulated
  expression of VEGFR2: down-regulated; also recorded: downregulated
  expression of anti-apoptotic protein Survivin: down-regulated; also recorded: downregulated
  expression of cell cycle regulatory protein P21: up-regulated; also recorded: upregulated
  expression of p-VEGFR2: down-regulated; also recorded: downregulated
  expression of pro-apoptotic Bax: down-regulated; also recorded: downregulated
  expression of β-catenin: down-regulated; also recorded: downregulated
